Source: ChEMBL document CHEMBL3217485, “Understanding and overcoming aminoglycoside resistance caused by N-6'-acetyltransferase” (Medchemcomm, 2012)
Converted amounts (≈) assume the structure as drawn. One block for each compound: values may come before it. The source made the active and inactive calls. No cut-off for these calls is given here. Where a SMILES comes first, the peptide text is derived from it. [ ]: non-standard residue; d: D form. Orn = NCCC[C@H](N)C(=O)O

Key:
[1] = tested on: Pseudomonas aeruginosa; assay: Antibacterial activity against kanamycin-resistant Pseudomonas aeruginosa GN315 expressing AAC(6') enzyme; format: functional
[2] = tested on: Escherichia coli; assay: Antibacterial activity against kanamycin-resistant Escherichia coli K-12 R5 expressing AAC(6') enzyme; format: functional
[3] = biological target: Aac(6')-Ii protein (Enterococcus faecium, UniProt Q47764); assay: Inhibition of Enterococcus faecium AAC(6')-li
Sequence of Aac(6')-Ii protein (Q47764 whole entry): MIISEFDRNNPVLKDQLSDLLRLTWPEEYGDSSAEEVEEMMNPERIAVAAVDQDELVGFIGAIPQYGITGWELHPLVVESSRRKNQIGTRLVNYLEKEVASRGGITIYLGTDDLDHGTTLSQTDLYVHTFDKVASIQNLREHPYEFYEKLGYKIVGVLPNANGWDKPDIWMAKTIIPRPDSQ

[4] = Ratio of Kcat to Km for AAC(6')-li (unknown origin)
[5] = Activity at AAC(6')-li (unknown origin)
[6] = tested on: Escherichia coli; assay: Antibacterial activity against Escherichia coli ATCC 25922; format: functional
[7] = Binding affinity to biotinylated Escherichia coli 16S rRNA A-site
[8] = Inhibition of AAC(6')-le (unknown origin)
[9] = Inhibition of AAC(6')-li (unknown origin)
[10] = Binding affinity to AAC(6')-lb (unknown origin)

Compound: CNC[C@H]1O[C@H](O[C@H]2[C@H](O)[C@@H](O[C@@H]3O[C@@H](CO)[C@H](O)[C@@H](N)[C@@H]3O)[C@H](N)C[C@@H]2N)[C@H](O)[C@@H](O)[C@@H]1O
MIC [1]: > 100 µg/mL
MIC [2]: 1.56 µg/mL (≈ 3.13 µM)

Ki [3]: ≥ 200 µM
Compound: CC(=O)CC(=O)N(CCCc1ccccc1)CC(C)(C)[C@@H](O)C(=O)NCCC(=O)NCCSCC(=O)NC[C@H]1O[C@H](O[C@H]2[C@H](O)[C@@H](O)[C@H](N)C[C@@H]2N)[C@H](N)[C@@H](O)[C@@H]1O

kcat/Km [4]: 1.6 ×10⁴ /M/s
Km [5]: 53.4 µM
kcat [5]: 0.86 s⁻¹
MIC [6]: 31 µM (≈ 24.8 µg/mL)
Compound: NC[C@H]1O[C@H](O[C@H]2[C@H](OCC(=O)NCCCNC(=O)CO[C@@H]3[C@@H](O)[C@H](N)C[C@H](N)[C@H]3O[C@H]3O[C@H](CN)[C@@H](O)[C@H](O)[C@H]3N)[C@@H](O)[C@H](N)C[C@@H]2N)[C@H](N)[C@@H](O)[C@@H]1O
Kd [7]: 1.1 µM

Compound: NC[C@H]1O[C@H](O[C@H]2[C@H](O)[C@@H](O)[C@H](N)C[C@@H]2N)[C@H](N)[C@@H](O)[C@@H]1O [NEAMINE]
kcat/Km [4]: 7.2 ×10⁴ /M/s
Km [5]: 5.82 µM
kcat [5]: 0.419 s⁻¹
MIC [6]: 50 µM (≈ 16.1 µg/mL)
Kd [7]: 10 µM

IC50 [8]: 38 µM
inhibition [9]: inactive
Compound: H-KWKSFIKKLTSAAKKVTTAAKPLTK-OH

Ki [9]: 0.043 µM
Compound: CC(C)(COP(=O)(O)OP(=O)(O)OC[C@H]1O[C@@H](n2cnc3c(N)ncnc32)[C@H](O)[C@@H]1OP(=O)(O)O)[C@@H](O)C(=O)NCCC(=O)NCCSCCC(=O)NC[C@H]1O[C@H](O[C@H]2[C@H](O)[C@@H](O)[C@H](N)C[C@@H]2N)[C@H](N)[C@@H](O)[C@@H]1O

Ki [3]: ≥ 500 µM
Compound: CC(C)(CO)[C@@H](O)C(=O)NCCC(=O)NCCSCCCC(=O)NC[C@H]1O[C@H](O[C@H]2[C@H](O)[C@@H](O)[C@H](N)C[C@@H]2N)[C@H](N)[C@@H](O)[C@@H]1O

kcat/Km [4]: 2.26 ×10⁴ /M/s
Km [5]: 83.6 µM
kcat [5]: 1.89 s⁻¹
MIC [6]: 125 µM (≈ 103 µg/mL)
Compound: NC[C@H]1O[C@H](O[C@H]2[C@H](OCC(=O)NCCCCCNC(=O)CO[C@@H]3[C@@H](O)[C@H](N)C[C@H](N)[C@H]3O[C@H]3O[C@H](CN)[C@@H](O)[C@H](O)[C@H]3N)[C@@H](O)[C@H](N)C[C@@H]2N)[C@H](N)[C@@H](O)[C@@H]1O
Kd [7]: 0.8 µM

Ki [3]: ≥ 200 µM
Compound: CC(=O)CC(=O)NCC(C)(C)[C@@H](O)C(=O)NCCC(=O)NCCSCC(=O)NC[C@H]1O[C@H](O[C@H]2[C@H](O)[C@@H](O)[C@H](N)C[C@@H]2N)[C@H](N)[C@@H](O)[C@@H]1O

Ki [9]: 5.2 µM
Compound: CC(C)(COP(=O)(O)OP(=O)(O)OC[C@H]1O[C@@H](n2cnc3c(N)ncnc32)[C@H](O)[C@@H]1OP(=O)(O)O)[C@@H](O)C(=O)NCCC(=O)NCCSCCCCCC(=O)NC[C@H]1O[C@H](O[C@H]2[C@H](O)[C@@H](O)[C@H](N)C[C@@H]2N)[C@H](N)[C@@H](O)[C@@H]1O

Compound: CNC[C@H]1O[C@H](O[C@H]2[C@H](O)[C@@H](O[C@@H]3O[C@@H](CO)[C@H](O)[C@@H](N)[C@@H]3O)[C@H](NC(=O)[C@@H](O)CCN)C[C@@H]2N)[C@H](O)[C@@H](O)[C@@H]1O
MIC [1]: 25 µg/mL (≈ 41.7 µM)
MIC [2]: 1.56 µg/mL (≈ 2.6 µM)

inhibition [8]: inactive
IC50 [9]: 13 µM
Compound: CC[C@H](C)[C@H](N)C(=O)N[C@@H](CC(C)C)C(=O)N1CCC[C@H]1C(=O)N[C@@H](Cc1c[nH]c2ccccc12)C(=O)N[C@@H](CCCCN)C(=O)N[C@@H](Cc1c[nH]c2ccccc12)C(=O)N1CCC[C@H]1C(=O)N[C@@H](Cc1c[nH]c2ccccc12)C(=O)N[C@@H](Cc1c[nH]c2ccccc12)C(=O)N1CCC[C@H]1C(=O)N[C@@H](Cc1c[nH]c2ccccc12)C(=O)N[C@@H](CCCN=C(N)N)C(=O)N[C@@H](CCCN=C(N)N)C(N)=O

Compound: CC(C)C[C@@H]1NC(=O)[C@H](CCCN)NC(=O)[C@H](C(C)C)NC(=O)[C@@H]2CCCN2C(=O)[C@@H](Cc2ccccc2)NC(=O)[C@H](CC(C)C)NC(=O)[C@H](CCCN)NC(=O)[C@H](C(C)C)NC(=O)[C@@H]2CCCN2C(=O)[C@@H](Cc2ccccc2)NC1=O [GRAMICIDIN S] (cyclo(L[dF]PV[Orn]L[dF]PV[Orn]))
IC50 [8]: 14 µM
inhibition [9]: inactive

Ki [3]: ≥ 500 µM
Compound: CC(C)(CO)[C@@H](O)C(=O)NCCC(=O)NCCSCCC(=O)NC[C@H]1O[C@H](O[C@H]2[C@H](O)[C@@H](O)[C@H](N)C[C@@H]2N)[C@H](N)[C@@H](O)[C@@H]1O

Ki [9]: 8 µM
Compound: CC(C)(COP(=O)(O)OP(=O)(O)OC[C@H]1O[C@@H](n2cnc3c(N)ncnc32)[C@H](O)[C@@H]1OP(=O)(O)O)[C@@H](O)C(=O)NCCC(=O)NCCSCCCCC(=O)NC[C@H]1O[C@H](O[C@H]2[C@H](O)[C@@H](O)[C@H](N)C[C@@H]2N)[C@H](N)[C@@H](O)[C@@H]1O

Ki [3]: ≥ 200 µM
Compound: CC(=O)CC(=O)N(CCc1ccccc1)CC(C)(C)[C@@H](O)C(=O)NCCC(=O)NCCSCC(=O)NC[C@H]1O[C@H](O[C@H]2[C@H](O)[C@@H](O)[C@H](N)C[C@@H]2N)[C@H](N)[C@@H](O)[C@@H]1O

Ki [3]: ≥ 500 µM
Compound: CC(C)(CO)[C@@H](O)C(=O)NCCC(=O)NCCSCCCCCC(=O)NC[C@H]1O[C@H](O[C@H]2[C@H](O)[C@@H](O)[C@H](N)C[C@@H]2N)[C@H](N)[C@@H](O)[C@@H]1O

Ki [3]: ≥ 500 µM
Compound: CC(C)(CO)[C@@H](O)C(=O)NCCC(=O)NCCSCC(=O)NC[C@H]1O[C@H](O[C@H]2[C@H](O)[C@@H](O)[C@H](N)C[C@@H]2N)[C@H](N)[C@@H](O)[C@@H]1O

Kd [10]: 23 µM
Compound: N[C@H]1C[C@H](Oc2ccccc2[N+](=O)[O-])[C@@H](N)C1
